# From patent publication US8431593B2, “Heteroaryl amide derivatives” (H. Lundbeck A/S, priority 2006, dated 2013)
# Biological target: T1, P2X7 receptor (Homo sapiens, UniProt Q99572)
# T1 construct: host or cells: SH-SY5Y
# T1 sequence (Q99572 1-595): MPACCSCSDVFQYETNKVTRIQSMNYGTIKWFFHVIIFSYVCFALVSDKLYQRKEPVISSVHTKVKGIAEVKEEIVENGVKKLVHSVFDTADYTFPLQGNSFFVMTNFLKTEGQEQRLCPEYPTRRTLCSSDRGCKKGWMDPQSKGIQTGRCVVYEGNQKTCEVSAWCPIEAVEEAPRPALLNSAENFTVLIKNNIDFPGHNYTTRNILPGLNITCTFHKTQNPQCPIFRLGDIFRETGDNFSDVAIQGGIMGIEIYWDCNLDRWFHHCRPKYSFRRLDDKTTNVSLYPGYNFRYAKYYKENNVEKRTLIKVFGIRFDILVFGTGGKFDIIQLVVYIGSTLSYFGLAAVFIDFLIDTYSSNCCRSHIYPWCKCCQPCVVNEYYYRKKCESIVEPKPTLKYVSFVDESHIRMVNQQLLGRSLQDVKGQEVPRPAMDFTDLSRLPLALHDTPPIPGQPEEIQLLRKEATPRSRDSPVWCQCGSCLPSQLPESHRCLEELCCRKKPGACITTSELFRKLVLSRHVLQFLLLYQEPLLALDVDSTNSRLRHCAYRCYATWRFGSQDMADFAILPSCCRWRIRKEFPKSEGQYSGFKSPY
# Assay: P2X7 calcium mobilization assay, high throughput, antagonist activity (Example 4A)
# Type: cell-based
# Details: 50% decrease in the fluorescence response of cells exposed to 80 μM 2′(3′)-O-(4-benzoyl-benzoyl)adenosine 5′-triphosphate; Example 4A; read-out: IC50
# Summary of the method: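 Antagonism was measured as calcium mobilization on FLIPR^TETRA after a 1 h room-temperature compound preincubation of dye-loaded cells. Baseline from no-agonist wells was subtracted from each well's maximum RFU.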
row,SMILES,IC50 [nM]
1,"C[C@@H]1CNCCN1C(=O)Cc1cn2c(C(=O)NC[C@@H]3CC[C@@H]4C[C@H]3C4(C)C)cccc2n1 [Compound 561, N-{[(1R,2R,5R)-6,6-dimethylbicyclo[3.1.1]hept-2-yl]methyl}-2-{2-[(2R)-2-methylpiperazin-1-yl]-2-oxoethyl}imidazo[1,2-a]pyridine-5-carboxamide]",< 2000
2,"C[C@H]1CN(C(=O)Cc2cn3c(C(=O)NC[C@@H]4CC[C@@H]5C[C@H]4C5(C)C)cccc3n2)CCN1 [Compound 563, N-{[(1R,2R,5R)-6,6-dimethylbicyclo[3.1.1]hept-2-yl]methyl}-2-{2-[(3S)-3-methylpiperazin-1-yl]-2-oxoethyl}imidazo[1,2-a]pyridine-5-carboxamide]",< 2000
3,"C[C@@H]1CN(C(=O)Cc2cn3c(C(=O)NC[C@@H]4CC[C@@H]5C[C@H]4C5(C)C)cccc3n2)CCN1 [Compound 564, N-{[(1R,2R,5R)-6,6-dimethylbicyclo[3.1.1]hept-2-yl]methyl}-2-{2-[(3R)-3-methylpiperazin-1-yl]-2-oxoethyl}imidazo[1,2-a]pyridine-5-carboxamide]",< 2000
4,"CN(C(=O)Cc1cn2c(C(=O)NC[C@@H]3CC[C@@H]4C[C@H]3C4(C)C)cccc2n1)C1CCCNC1 (stereo partly drawn) [Compound 565, N-{[(1R,2R,5R)-6,6-dimethylbicyclo[3.1.1]hept-2-yl]methyl}-2-{2-[methyl(piperidin-3-yl)amino]-2-oxoethyl}imidazo[1,2-a]pyridine-5-carboxamide]",< 2000
5,"COCCN(C(=O)Cc1cn2c(C(=O)NC[C@@H]3CC[C@@H]4C[C@H]3C4(C)C)cccc2n1)C1CCNCC1 [Compound 567, N-{[(1R,2R,5R)-6,6-dimethylbicyclo[3.1.1]hept-2-yl]methyl}-2-{2-[(2-methoxyethyl) (piperidin-4-yl)amino]-2-oxoethyl} imidazo[1,2-a]pyridine-5-carboxamide]",< 2000
6,"CNC1CCN(C(=O)Cc2cn3c(C(=O)NC[C@@H]4CC[C@@H]5C[C@H]4C5(C)C)cccc3n2)C1 (stereo partly drawn) [Compound 568, N-{[(1R,2R,5R)-6,6-dimethylbicyclo[3.1.1]hept-2-yl]methyl}-2-{2-[3-(methylamino)pyrrolidin-1-yl]-2-oxoethyl}imidazo[1,2-a]pyridine-5-carboxamide]",< 2000
7,"CC(C)[C@@H]1CNCCN1C(=O)Cc1cn2c(C(=O)NC[C@@H]3CC[C@@H]4C[C@H]3C4(C)C)cccc2n1 [Compound 570, N-{[(1R,2R,5R)-6,6-dimethylbicyclo[3.1.1]hept-2-yl]methyl}-2-{2-[(2R)-2-isopropylpiperazin-1-yl]-2-oxoethyl}imidazo[1,2-a]pyridine-5-carboxamide]",< 2000
8,"COCCCN(C(=O)Cc1cn2c(C(=O)NC[C@@H]3CC[C@@H]4C[C@H]3C4(C)C)cccc2n1)C1CCNCC1(C)C (stereo partly drawn) [Compound 572, N-{[(1R,2R,5R)-6,6-dimethylbicyclo[3.1.1]hept-2-yl]methyl}-2-{2-[(3,3-dimethylpiperidin-4-yl)(3-methoxy-propyl)amino]-2-oxoethyl} imidazo[1,2-a] pyridine-5-carboxamide]",< 2000
9,"COCCN(C(=O)Cc1cn2c(C(=O)NC[C@@H]3CC[C@@H]4C[C@H]3C4(C)C)cccc2n1)C1CCNCC1(C)C (stereo partly drawn) [Compound 573, N-{[(1R,2R,5R)-6,6-dimethylbicyclo[3.1.1]hept-2-yl]methyl}-2-{2-[(3,3-dimethyl-piperidin-4-yl)(2-methoxyethyl)amino]-2-oxoethyl}imidazo [1,2-a]pyridine-5-carboxamide]",< 2000
10,"CN(C)CCN(C(=O)Cc1cn2c(C(=O)NC[C@@H]3CC[C@@H]4C[C@H]3C4(C)C)cccc2n1)C1CCNCC1(C)C (stereo partly drawn) [Compound 574, 2-(2-{[2-(dimethylamino)ethyl] (3,3-dimethylpiperidin-4-yl)amino}-2-oxoethyl)-N-{[(1R,2R,5R)-6,6-dimethylbicyclo [3.1.1]hept-2-yl]methyl}imidazo[1,2-a]pyridine-5-carboxamide]",< 2000
11,"CC1(C)[C@@H]2CC[C@@H](CNC(=O)c3cccc4nc(CC(=O)N5CCCC(CN)C5)cn34)[C@H]1C2 (stereo partly drawn) [Compound 578, 2-{2-[3-(aminomethyl)piperidin-1-yl]-2-oxoethyl}-N-{[(1R,2R,5R)-6,6-dimethylbicyclo[3.1.1]hept-2-yl]methyl}imidazo[1,2-a]pyridine-5-carboxamide]",< 2000
12,"CC1(C)[C@@H]2CC[C@@H](CNC(=O)c3cccc4nc(CC(=O)N5CCC[C@@H]5CN)cn34)[C@H]1C2 [Compound 584, 2-{2-[(2R)-2-(aminomethyl)pyrrolidin-1-yl]-2-oxoethyl}-N-{[(1R,2R,5R)-6,6-dimethylbicyclo [3.1.1]hept-2-yl]methyl}imidazo [1,2-a]pyridine-5-carboxamide]",< 2000
13,"CC1(C)[C@@H]2CC[C@@H](CNC(=O)c3cccc4nc(CC(=O)N5CCC[C@H]5CN)cn34)[C@H]1C2 [Compound 587, 2-{2-[(2S)-2-(aminomethyl)pyrrolidin-1-yl]-2-oxoethyl}-N-{[(1R,2R,5R)-6,6-dimethylbicyclo [3.1.1]hept-2-yl]methyl}imidazo[1,2-a]pyridine-5-carboxamide]",< 2000

# The remaining lines, values ahead:
row,IC50 [nM],SMILES
1,< 2000,"CC(C)[C@H]1CN(C(=O)Cc2cn3c(C(=O)NC[C@@H]4CC[C@@H]5C[C@H]4C5(C)C)cccc3n2)CCN1 [Compound 562, N-{[(1R,2R,5R)-6,6-dimethylbicyclo[3.1.1]hept-2-yl]methyl}-2-{2-[(3S)-3-isopropylpiperazin-1-yl]-2-oxoethyl}imidazo[1,2-a]pyridine-5-carboxamide]"
2,< 2000,"CC(C)[C@H]1CNCCN1C(=O)Cc1cn2c(C(=O)NC[C@@H]3CC[C@@H]4C[C@H]3C4(C)C)cccc2n1 [Compound 569, N-{[(1R,2R,5R)-6,6-dimethylbicyclo[3.1.1]hept-2-yl]methyl}-2-{2-[(2S)-2-isopropylpiperazin-1-yl]-2-oxoethyl}imidazo[1,2-a]pyridine-5-carboxamide]"
3,< 2000,"CC(C)[C@@H]1CN(C(=O)Cc2cn3c(C(=O)NC[C@@H]4CC[C@@H]5C[C@H]4C5(C)C)cccc3n2)CCN1 [Compound 571, N-{[(1R,2R,5R)-6,6-dimethylbicyclo[3.1.1]hept-2-yl]methyl}-2-{2-[(3R)-3-isopropylpiperazin-1-yl]-2-oxoethyl}imidazo[1,2-a]pyridine-5-carboxamide]"
4,< 2000,"CC1(C)[C@@H]2CC[C@@H](CNC(=O)c3cccc4nc(CC(=O)N5CCCCC5CN)cn34)[C@H]1C2 (stereo partly drawn) [Compound 579, 2-{2-[2-(aminomethyl)piperidin-1-yl]-2-oxoethyl}-N-{[(1R,2R,5R)-6,6-dimethylbicyclo[3.1.1]hept-2-yl]methyl}imidazo[1,2-a]pyridine-5-carboxamide]"
5,< 2000,"CC1(C)[C@@H]2CC[C@@H](CNC(=O)c3cccc4nc(CC(=O)N5CCCC5CN)cn34)[C@H]1C2 (stereo partly drawn) [Compound 580, 2-{2-[2-(aminomethyl)pyrrolidin-1-yl]-2-oxoethyl}-N-{[(1R,2R,5R)-6,6-dimethylbicyclo[3.1.1]hept-2-yl]methyl}imidazo[1,2-a]pyridine-5-carboxamide]"
6,< 2000,"CC1(C)[C@@H]2CC[C@@H](CNC(=O)c3cccc4nc(CC(=O)N5CCCC(N)C5)cn34)[C@H]1C2 (stereo partly drawn) [Compound 581, 2-[2-(3-aminopiperidin-1-yl)-2-oxoethyl]-N-{[(1R,2R,5R)-6,6-dimethylbicyclo[3.1.1]hept-2-yl]methyl}imidazo[1,2-a]pyridine-5-carboxamide]"
